From patent US9737546B2, “Small molecules to enhance P53 activity” (THE REGENTS OF THE UNIVERSITY OF CALIFORNIA, priority 2013, dated 2017)

Tests used:
[1] = test system: parental Saos-2 (p53^null) cells; test: Cell proliferation of parental Saos-2 (p53null) cells, CellTiter-Glo; type: cell-based; settings: cultured 3 days, max. 200 μM, Zinc Leads Now compounds (FIG. 3A)
Procedure: FIG. 3A is a graph of reactivation activities of various compounds. Saos-2 cells expressing no p53 (p53^null), or expressing one of the cancer mutants p53-R175H or p53-G245S, were cultured for 3 days in the presence of different concentrations of compounds that had been selected from the Zinc Leads Now database, version of January, 2011, by the computational methods described below. The p53 reactivation compounds shown correspond to FIG. 1. Cell numbers were measured using the CellTiter-Glo® reagent. […] Data are presented as the standard error of the mean (n=3). Note that as of this writing eight compounds have been tested on the R175H mutant only (32CTM, 28NZ6, 27TGR, 27VFS, 35LWZ, 36EB5, 32LDE, and 32JCB).
FIG. 3B is a graph of reactivation activities of various compounds. Experimental conditions are as in FIG. 3A, but compounds were selected from the Chembridge Express Pick Library 2012 database, by the computational methods described below. The p53 reactivation compounds shown correspond to FIG. 2.
The basis for our primary assay is that cancer cells cannot tolerate active p53, stop proliferation, and eventually die. […]
(§1) Our primary screen is the p53 cancer mutant R175H, which is the single most prevalent human cancer mutation. Active compounds were re-evaluated using an independent cell line expressing a different p53 cancer mutant, G245S.

p53 cancer mutant R175H = target: T1, p53 cancer mutant R175H (Homo sapiens, UniProt P04637, R175H); test: p53 reactivation assay (cell killing / proliferation arrest) in Saos-2 cells expressing p53 cancer mutant R175H; type: cell-based; settings: 50 μM pre-heated PRIMA-1, 72 h, Saos-2 cells (FIG. 5)
T1 construct: expressed in transfected cells; host or cells: Saos-2 (p53null) human osteosarcoma cells
Procedure: (§2) FIG. 5 is a graph showing that PRIMA-1 acts through cysteine 124 in p53. p53null Saos-2 cells expressing wild type p53, or the indicated p53 mutants, were treated with 50 μM pre-heated PRIMA-1 (“+”, left bar) or the medium without PRIMA-1 (DMSO, “−”, right bar) for 72 h. The increase in cell number during 72 h of growth is shown. Standard deviations represent 4 independent samples (Wassman, et al., 2013).
(§3) The increase in cell number during 72 h of growth is shown. As expected, the p53 cancer mutant R175H was activated by PRIMA-1. Mutating cysteine 124 to alanine blocked PRIMA-1 induced cancer mutant reactivation.
The basis for our primary assay is that cancer cells cannot tolerate active p53, stop proliferation, and eventually die. Expression of functional p53 in p53null Saos-2 osteosarcoma cells blocks their proliferation; expression of p53 cancer mutants has no effect (Wassman et al., 2013) (FIG. 5). Importantly, compounds that reactivate p53 cancer mutants specifically block proliferation of Saos-2 cells expressing p53 cancer mutants, but have no effect on growth of p53null cells at the same concentration (FIG. 3). […]
as §1

[2] = target: T2, R175H-p53 with A124 (cysteine 124 to alanine) (Homo sapiens, UniProt P04637, C124A/R175H); test: PRIMA-1 treatment of Saos-2 cells expressing R175H-p53 with cysteine 124 changed to alanine; type: cell-based; settings: 50 μM pre-heated PRIMA-1, 72 h, Saos-2 cells (FIG. 5)
T2 construct: expressed in transfected cells; host or cells: Saos-2 (p53null) human osteosarcoma cells
Procedure: as §2
Although the region around residue C124 is enriched for cancer rescue mutations, changes in position 124 have never been found, nor were they predicted by our SVM classifier, to reactivate p53 cancer mutants. Indeed, directed saturation mutagenesis of position 124 in the context of the R175H p53 cancer mutation explored all single amino acid changes at C124 and confirmed the absence of any genetic mutation rescue activity at this position. We could therefore test the computer predictions for a role of C124 in covalent drug binding in vivo by changing C124 into alanine to prevent the hypothetical thiol-mediated link with MQ.
as §3

p53 cancer mutants = test: p53-dependent cell killing (or proliferation arrest) in Saos-2 cells expressing p53 cancer mutants; type: cell-based, human
Procedure: FIG. 3C is a graph of dose response curves for compounds 33BAZ and 27UDP using four different p53 cancer mutants: R175H, G245S, R248W, and R273H. Experimental conditions are as in FIG. 3A.
FIG. 3D is a panel of graphs of broad spectrum activity for four other compounds using four different p53 cancer mutants: R175H, G245S, R248W, and R273H. Experimental conditions are as in FIG. 3C, but a single dose was assayed: 27VFS (20 μM), 35LWZ (50 μM), 27WT9 (10 μM), and 26RQZ (10 μM).
Our previous p53 reactivation assays focused on p53-driven expression of the canonical p53 target genes p21 and PUMA (Wassman et al., 2013). However, there is significant evidence that neither p21 nor PUMA expression predict p53 anti-tumor activity (Hock & Vousden, 2012; Li et al., 2012; Valente et al., 2013). Indeed, our results comparing effects of PRIMA-1 and stictic acid support this view. […] We now use p21 and PUMA expression as an independent transcription assay for p53 cancer mutant reactivation, but not the primary selection criterion. We changed to p53-dependent cell killing (or proliferation arrest) as our main measure of efficacy because our long-term goal is anti-tumor drugs. […]
as §1

p53 R175H = p53 R175H (Homo sapiens, UniProt P04637, R175H); settings: cited from earlier work
[3] = test system: p53-dependent reporter expression (p21 and PUMA promoter elements); test: p21 and PUMA expression / transcriptional reporter assay based on p21 and PUMA promoter elements; type: cell-based, human; settings: comparison of stictic acid and PRIMA-1
Text: Our previous p53 reactivation assays focused on p53-driven expression of the canonical p53 target genes p21 and PUMA (Wassman et al., 2013). However, there is significant evidence that neither p21 nor PUMA expression predict p53 anti-tumor activity (Hock & Vousden, 2012; Li et al., 2012; Valente et al., 2013). Indeed, our results comparing effects of PRIMA-1 and stictic acid support this view. […] We now use p21 and PUMA expression as an independent transcription assay for p53 cancer mutant reactivation, but not the primary selection criterion. We changed to p53-dependent cell killing (or proliferation arrest) as our main measure of efficacy because our long-term goal is anti-tumor drugs.
An independent test for p53 cancer mutant reactivation is the well-established transcriptional reporter assay based on p21 and PUMA promoter elements (Wassman, et al., 2013). As above, the magnitude of reactivated p53-dependent transcription is not considered relevant for a compound's potency in cancer cell killing.

## O=C1C2CCN(CC2)C1(CO)CO [PRIMA-1]
[1]
  highest compound concentration that did not significantly affect cell proliferation of the parental Saos-2 (p53null) cells: 50 µM
p53 cancer mutant R175H
  effect on cells expressing the inactive R175H p53: reactivation and induction of cell death
[2]
  PRIMA-1 effects after introduction of A124 in R175H-p53: completely eliminated
p53 cancer mutants; comparison of PRIMA-1 and stictic acid
  p53-dependent killing/arresting of cells: considerably more potent

## C/C(=N\NC(=S)N1CCC1)c1ccccn1 [NSC319726]
p53 R175H
  allele specificity of p53 mutant reactivation: R175H allele-specific

## COc1cc(C)c2c(c1C=O)Oc1c(c(C)c(O)c3c1C(O)OC3=O)OC2=O (centres unmarked) [stictic acid]
[3]
  restoring p21 and PUMA expression in p53 cancer mutants: significantly better than PRIMA-1
p53 cancer mutants; one of 45 screened NCI DTP compounds
  p53 reactivation in biological assays: proved to be a p53 reactivation compound

## CC(=NNC(=S)N(C)C)c1ccccn1 [NSC319725]
p53 R175H
  allele specificity of p53 mutant reactivation: R175H allele-specific
